Values belong to the compound of their own block, whether it stands above or below them. Active and inactive are the calls of the source.
What was measured:
[1] = molecular target: T1, High affinity choline transporter 1 (Homo sapiens, UniProt Q9GZV3); experiment: CHT inhibitors, dose response, cell-based, 5-point CRC, membrane potential dye (AID 504840); type: functional
T1 sequence (Q9GZV3 whole entry): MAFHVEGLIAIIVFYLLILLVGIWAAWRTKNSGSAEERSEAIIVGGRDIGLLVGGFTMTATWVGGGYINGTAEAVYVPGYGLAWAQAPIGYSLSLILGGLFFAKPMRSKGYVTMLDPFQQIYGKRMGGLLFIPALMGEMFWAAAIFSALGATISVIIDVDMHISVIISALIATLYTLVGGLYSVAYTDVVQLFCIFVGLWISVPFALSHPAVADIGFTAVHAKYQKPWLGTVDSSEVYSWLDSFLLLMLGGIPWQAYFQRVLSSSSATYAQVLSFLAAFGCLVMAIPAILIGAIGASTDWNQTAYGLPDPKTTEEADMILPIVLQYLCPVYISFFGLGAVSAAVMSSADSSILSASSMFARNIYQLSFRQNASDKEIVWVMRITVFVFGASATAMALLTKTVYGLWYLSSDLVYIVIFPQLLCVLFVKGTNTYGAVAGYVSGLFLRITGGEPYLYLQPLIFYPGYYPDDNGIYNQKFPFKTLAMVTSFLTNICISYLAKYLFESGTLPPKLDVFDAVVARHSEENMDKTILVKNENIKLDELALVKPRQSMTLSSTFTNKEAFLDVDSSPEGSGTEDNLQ

[2] = molecular target: T1, High affinity choline transporter 1; experiment: CHT inhibitors, dose response, cell-based, 10-point CRC, membrane potential dye (AID 588401); type: functional;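 also: membrane potential dye fluorescence of choline-evoked depolarization via CHT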
[3] = molecular target: T2, Aurora kinase A (Homo sapiens, UniProt O14965); type: functional;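 also: value from the Navigating the Kinome kinase panel profiling, panel entry STK6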
T2 sequence (O14965 whole entry): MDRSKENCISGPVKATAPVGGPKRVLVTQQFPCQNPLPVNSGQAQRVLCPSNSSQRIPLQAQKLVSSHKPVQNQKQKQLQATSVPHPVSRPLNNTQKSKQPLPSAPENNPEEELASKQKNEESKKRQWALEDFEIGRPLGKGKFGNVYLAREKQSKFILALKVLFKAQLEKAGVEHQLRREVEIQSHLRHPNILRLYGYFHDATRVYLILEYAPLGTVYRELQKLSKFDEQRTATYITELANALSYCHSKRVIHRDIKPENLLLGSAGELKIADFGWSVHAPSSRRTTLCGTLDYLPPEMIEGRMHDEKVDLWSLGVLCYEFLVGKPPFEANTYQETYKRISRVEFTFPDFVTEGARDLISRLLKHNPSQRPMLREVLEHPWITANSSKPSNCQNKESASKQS

[4] = molecular target: Vascular endothelial growth factor receptor 2 (Homo sapiens, UniProt P35968); type: functional
Vascular endothelial growth factor receptor 2, sequence (P35968 whole entry): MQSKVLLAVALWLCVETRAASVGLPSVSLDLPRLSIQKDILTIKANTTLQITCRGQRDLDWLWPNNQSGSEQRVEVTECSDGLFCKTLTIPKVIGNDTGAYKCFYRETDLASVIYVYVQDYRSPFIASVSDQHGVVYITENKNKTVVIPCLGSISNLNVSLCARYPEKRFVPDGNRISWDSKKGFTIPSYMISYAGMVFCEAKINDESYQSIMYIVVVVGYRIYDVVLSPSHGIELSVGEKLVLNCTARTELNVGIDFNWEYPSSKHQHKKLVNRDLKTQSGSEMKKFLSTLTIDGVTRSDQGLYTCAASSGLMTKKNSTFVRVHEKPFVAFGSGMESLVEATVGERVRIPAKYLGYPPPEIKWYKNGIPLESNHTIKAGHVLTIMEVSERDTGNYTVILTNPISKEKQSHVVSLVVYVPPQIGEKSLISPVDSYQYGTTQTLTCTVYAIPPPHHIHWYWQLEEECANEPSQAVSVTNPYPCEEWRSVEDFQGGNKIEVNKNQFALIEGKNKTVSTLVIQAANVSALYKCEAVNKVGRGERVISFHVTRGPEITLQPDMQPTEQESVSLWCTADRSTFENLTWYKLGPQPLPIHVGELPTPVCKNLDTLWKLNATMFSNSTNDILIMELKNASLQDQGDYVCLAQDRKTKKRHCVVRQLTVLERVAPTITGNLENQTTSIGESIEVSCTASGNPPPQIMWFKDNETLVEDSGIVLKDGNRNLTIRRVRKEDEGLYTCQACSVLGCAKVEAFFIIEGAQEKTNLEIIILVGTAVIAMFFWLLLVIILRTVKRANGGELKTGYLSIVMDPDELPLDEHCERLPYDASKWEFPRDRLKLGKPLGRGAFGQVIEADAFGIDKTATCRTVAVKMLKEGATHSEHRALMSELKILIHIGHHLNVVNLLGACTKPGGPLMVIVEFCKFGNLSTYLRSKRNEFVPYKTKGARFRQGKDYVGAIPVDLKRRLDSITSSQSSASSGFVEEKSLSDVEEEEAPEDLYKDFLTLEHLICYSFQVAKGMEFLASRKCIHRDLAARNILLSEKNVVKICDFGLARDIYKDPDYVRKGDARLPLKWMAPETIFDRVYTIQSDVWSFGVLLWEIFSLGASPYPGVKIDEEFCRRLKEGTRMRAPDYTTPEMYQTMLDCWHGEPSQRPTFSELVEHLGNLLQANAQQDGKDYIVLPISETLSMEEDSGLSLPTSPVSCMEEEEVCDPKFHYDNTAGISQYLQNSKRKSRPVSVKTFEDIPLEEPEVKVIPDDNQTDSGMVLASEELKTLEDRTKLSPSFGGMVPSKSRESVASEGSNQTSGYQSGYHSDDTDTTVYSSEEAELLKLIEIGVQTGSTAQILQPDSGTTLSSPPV

[5] = molecular target: Aurora kinase B (Homo sapiens, UniProt Q96GD4); type: functional
Aurora kinase B, sequence (Q96GD4 whole entry, the tested form may be a part): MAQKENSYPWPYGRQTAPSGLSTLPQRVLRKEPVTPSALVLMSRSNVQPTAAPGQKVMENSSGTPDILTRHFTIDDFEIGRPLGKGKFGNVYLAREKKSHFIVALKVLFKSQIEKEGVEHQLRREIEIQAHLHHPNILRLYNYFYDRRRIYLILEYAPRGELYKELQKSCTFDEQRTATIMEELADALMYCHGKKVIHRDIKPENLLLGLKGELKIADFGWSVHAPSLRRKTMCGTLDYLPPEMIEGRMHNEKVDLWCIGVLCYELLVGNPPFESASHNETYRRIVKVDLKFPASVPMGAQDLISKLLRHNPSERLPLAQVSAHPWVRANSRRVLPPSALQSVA

[6] = Fluorescence-based cell-based high throughput dose response assay for inhibitors of the interaction of nucleotide-binding oligomerization domain containing 2 (NOD2) and the receptor-interacting serine-threonine kinase 2 (RIPK2).; type: functional; conditions: Homo sapiens
[7] = molecular target: Beta Lactamase (Pseudomonas aeruginosa, UniProt Q932Y6); experiment: beta-lactamase reporter inhibitor potency, dose response, artefact control for NOD2-RIPK2 interaction inhibitor project, BLA reporter cells, FRET fluorescence (AID 651552); type: functional, cell-based
Beta Lactamase, sequence (Q932Y6 whole entry): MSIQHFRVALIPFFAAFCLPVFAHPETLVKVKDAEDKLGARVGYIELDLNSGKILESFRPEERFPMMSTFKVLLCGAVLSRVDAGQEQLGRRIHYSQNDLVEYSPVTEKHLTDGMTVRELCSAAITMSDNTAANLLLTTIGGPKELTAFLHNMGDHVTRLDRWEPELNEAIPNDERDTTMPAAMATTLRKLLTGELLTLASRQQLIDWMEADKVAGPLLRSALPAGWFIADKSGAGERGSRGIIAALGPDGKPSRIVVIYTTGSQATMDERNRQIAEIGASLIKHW

[8] = molecular target: Protein Wnt-3a (Mus musculus, UniProt P27467); experiment: Wnt3a-driven reporter signaling inhibition, dose response, selectivity assay for Gli-SUFU antagonist project, Wnt-LIGHT cells, luminescence (AID 651570); type: functional; conditions: read-out: IC50_Mean;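 also: Wnt-LIGHT reporter cells stimulated with conditioned medium from Wnt3a-producing cells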
Protein Wnt-3a, sequence (P27467 whole entry): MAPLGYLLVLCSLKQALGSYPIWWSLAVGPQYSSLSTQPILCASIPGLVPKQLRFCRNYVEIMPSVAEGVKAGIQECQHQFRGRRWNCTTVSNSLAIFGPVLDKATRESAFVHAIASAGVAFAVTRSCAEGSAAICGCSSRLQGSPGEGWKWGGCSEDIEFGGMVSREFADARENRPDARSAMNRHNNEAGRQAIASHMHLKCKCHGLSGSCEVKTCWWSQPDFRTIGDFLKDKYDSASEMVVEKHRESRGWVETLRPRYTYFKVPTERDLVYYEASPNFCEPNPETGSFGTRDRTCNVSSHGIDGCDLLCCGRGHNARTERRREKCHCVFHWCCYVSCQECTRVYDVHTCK

[9] = inhibitors of intracellular T. cruzi replication, confirmation, NIH3T3 host cells, beta-gal luminescence (AID 2044); type: functional, cell-based;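 also: intracellular parasites grown in NIH/3T3 mouse fibroblasts as host cells; luminescent beta-galactosidase reporter signal from transgenic T. cruzi replicating inside host cells; inhibitors lower the luminescence signal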
[10] = growth suppression of PTEN-null colon cells, dose response, cell-based, HCT116 PTEN knockout (AID 1047); type: functional;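 also: HCT116 colon tumor cells with PTEN knocked out; cells exposed to compound for 60 hours before readout; potency for loss of cell viability measured by luminescence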
[11] = cytotoxicity toward NIH3T3 fibroblasts, dose response, counter-screen, cell-based, ATP luminescence, mouse fibroblasts (AID 2010); type: functional;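 also: cells exposed to compound for about 90 hours before reading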
[12] = growth suppression of beta-catenin-knockout colon cells, dose response, cell-based, HCT116, human colon tumor (AID 1045); type: functional;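 also: HCT116 colon tumor cells with beta catenin knocked out; cells exposed to compound for 60 hours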
[13] = molecular target: Delta-type opioid receptor (Homo sapiens, UniProt P41143); experiment: Counterscreen for agonists of heterodimerization of the mu 1 (OPRM1) and delta 1 (OPRD1) opioid receptors: Luminescence-based cell-based high throughput dose response assay to identify agonists of OPRD1 homodimerization. [Related pubchem assays (depositor defined):AID504326, AID504355, AID504692, AID504904, AID504905]; type: functional
Delta-type opioid receptor, sequence (P41143 whole entry): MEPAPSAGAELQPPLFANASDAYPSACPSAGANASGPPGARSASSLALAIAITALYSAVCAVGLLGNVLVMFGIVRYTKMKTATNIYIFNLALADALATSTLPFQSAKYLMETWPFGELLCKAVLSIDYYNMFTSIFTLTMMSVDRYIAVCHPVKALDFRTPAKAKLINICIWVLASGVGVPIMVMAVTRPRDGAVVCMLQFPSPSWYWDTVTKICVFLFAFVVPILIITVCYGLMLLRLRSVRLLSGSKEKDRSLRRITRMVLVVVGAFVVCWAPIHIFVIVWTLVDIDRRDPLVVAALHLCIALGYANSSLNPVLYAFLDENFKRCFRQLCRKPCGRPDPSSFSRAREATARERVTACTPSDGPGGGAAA

[14] = molecular target: Mu-type opioid receptor (Homo sapiens, UniProt P35372); experiment: Counterscreen for agonists of heterodimerization of the mu 1 (OPRM1) and delta 1 (OPRD1) opioid receptors: Luminescence-based cell-based high throughput dose response assay to identify agonists of OPRM1 homodimerization.; type: functional;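 also: U2OS cells expressing OPRM1 and beta-arrestin as split beta-galactosidase partners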
Mu-type opioid receptor, sequence (P35372 whole entry): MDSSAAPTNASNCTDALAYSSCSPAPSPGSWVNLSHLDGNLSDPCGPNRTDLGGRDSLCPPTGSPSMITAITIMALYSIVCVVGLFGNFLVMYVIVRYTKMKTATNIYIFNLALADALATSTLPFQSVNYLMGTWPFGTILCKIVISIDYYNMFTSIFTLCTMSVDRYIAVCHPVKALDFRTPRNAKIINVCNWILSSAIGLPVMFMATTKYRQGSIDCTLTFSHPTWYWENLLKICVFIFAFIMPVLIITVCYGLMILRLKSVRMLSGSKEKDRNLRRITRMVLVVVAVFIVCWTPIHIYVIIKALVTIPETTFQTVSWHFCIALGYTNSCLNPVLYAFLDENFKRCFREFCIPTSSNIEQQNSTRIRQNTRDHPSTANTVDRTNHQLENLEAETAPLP

[15] = molecular target: 5-hydroxytryptamine receptor 5A (Homo sapiens, UniProt P47898); experiment: Counterscreen for agonists of OPRM1-OPRD1 heterodimerization: luminescence-based cell-based high throughput dose response assay to identify agonists of 5-hydroxytryptamine (serotonin) 5A receptor (HTR5A). [Related pubchem assays (depositor defined):AID504326, AID504355, AID504692, AID504904, AID504905]; type: functional
5-hydroxytryptamine receptor 5A, sequence (P47898 whole entry): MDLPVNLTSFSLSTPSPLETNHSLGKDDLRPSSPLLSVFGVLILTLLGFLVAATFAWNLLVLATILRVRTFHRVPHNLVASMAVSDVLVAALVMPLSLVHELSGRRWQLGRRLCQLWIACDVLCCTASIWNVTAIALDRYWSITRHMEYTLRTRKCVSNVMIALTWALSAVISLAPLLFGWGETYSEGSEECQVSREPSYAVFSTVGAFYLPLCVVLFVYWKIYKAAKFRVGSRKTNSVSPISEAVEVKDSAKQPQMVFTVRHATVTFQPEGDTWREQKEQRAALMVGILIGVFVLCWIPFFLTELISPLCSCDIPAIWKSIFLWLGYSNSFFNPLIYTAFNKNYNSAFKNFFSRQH

[16] = Shn3 3'UTR reporter inhibitors, dose response, cell-based, Clone20 osteoblasts, firefly luciferase, cherry-picked (AID 624132); type: functional;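 also: firefly luciferase luminescence from reporter carrying the Shn3 3'UTR in osteoblasts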
[17] = HepG2 cell cytotoxicity, dose response, cytotoxicity control for Shn3 inhibitor project, CellTiter-Glo, cherry-picked (AID 624134); type: functional, cell-based
[18] = control 3'UTR Renilla luciferase suppression, dose response, counter-screen for Shn3 inhibitor project, cell-based, Clone20-Shn3RL, cherry-picked (AID 624133); type: functional
[19] = HEp-2 cell cytotoxicity, dose response, cytotoxicity control for RSV inhibitor project, HTS (AID 2410); type: functional; conditions: human respiratory syncytial virus
[20] = molecular target: Beta-galactosidase (Escherichia coli, UniProt Q8VNN2); experiment: Dose response counterscreen for EBI2 assay utilizing the enzyme, b-galactosidase.; type: functional
Beta-galactosidase, sequence (Q8VNN2 whole entry): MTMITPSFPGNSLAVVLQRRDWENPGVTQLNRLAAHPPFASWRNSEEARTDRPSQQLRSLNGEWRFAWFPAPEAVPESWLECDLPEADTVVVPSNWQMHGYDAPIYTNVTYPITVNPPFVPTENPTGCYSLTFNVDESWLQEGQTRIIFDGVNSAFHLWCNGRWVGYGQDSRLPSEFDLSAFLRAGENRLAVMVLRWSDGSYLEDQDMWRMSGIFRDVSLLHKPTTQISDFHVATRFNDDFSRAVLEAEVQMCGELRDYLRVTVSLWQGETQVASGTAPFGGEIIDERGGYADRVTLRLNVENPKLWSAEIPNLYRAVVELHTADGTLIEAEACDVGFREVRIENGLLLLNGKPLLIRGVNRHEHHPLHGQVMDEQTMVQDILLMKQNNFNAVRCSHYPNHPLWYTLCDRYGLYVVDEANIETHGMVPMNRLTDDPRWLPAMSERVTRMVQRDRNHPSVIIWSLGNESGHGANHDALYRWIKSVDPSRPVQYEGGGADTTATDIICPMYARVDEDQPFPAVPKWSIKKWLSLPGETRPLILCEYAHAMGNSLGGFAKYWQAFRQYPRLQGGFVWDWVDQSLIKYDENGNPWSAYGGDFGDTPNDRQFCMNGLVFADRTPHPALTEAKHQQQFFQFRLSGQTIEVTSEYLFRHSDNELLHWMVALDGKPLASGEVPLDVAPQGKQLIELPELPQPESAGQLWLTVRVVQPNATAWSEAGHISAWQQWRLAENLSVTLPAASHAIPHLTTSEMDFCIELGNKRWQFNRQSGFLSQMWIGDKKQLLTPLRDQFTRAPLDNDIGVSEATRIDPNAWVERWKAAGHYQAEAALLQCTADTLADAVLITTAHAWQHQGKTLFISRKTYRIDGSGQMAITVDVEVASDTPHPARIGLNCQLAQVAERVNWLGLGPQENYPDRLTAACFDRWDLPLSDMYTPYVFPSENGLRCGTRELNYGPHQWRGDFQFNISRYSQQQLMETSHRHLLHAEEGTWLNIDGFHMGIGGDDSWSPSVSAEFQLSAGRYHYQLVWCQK

[21] = cells
[22] = molecular target: Melanin-concentrating hormone receptor 1 (Homo sapiens, UniProt Q99705); experiment: Late-stage fluorescence-based counterscreen for antagonists of the G-protein coupled receptor 7 (GPR7): cell-based dose response assay to identify antagonists of the melanin-concentrating hormone receptor 1 (MCHR1) Set 6.; type: functional
Melanin-concentrating hormone receptor 1, sequence (Q99705 whole entry): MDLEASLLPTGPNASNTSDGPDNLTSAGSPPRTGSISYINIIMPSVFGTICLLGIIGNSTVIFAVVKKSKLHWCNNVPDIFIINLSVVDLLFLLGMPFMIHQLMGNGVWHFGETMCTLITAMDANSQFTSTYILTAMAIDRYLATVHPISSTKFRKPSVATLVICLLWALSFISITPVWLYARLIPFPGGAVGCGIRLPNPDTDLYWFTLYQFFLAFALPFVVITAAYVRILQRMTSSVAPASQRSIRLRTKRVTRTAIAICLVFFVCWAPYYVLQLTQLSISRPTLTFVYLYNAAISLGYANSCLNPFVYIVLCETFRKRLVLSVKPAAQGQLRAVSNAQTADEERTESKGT

[23] = molecular target: T3, Neuropeptides B/W receptor type 1 (Homo sapiens, UniProt P48145); experiment: GPR7 antagonist potency, late-stage follow-up, cell-based, fluorescence, dose response, set 6 (AID 588583); type: functional
T3 sequence (P48145 whole entry): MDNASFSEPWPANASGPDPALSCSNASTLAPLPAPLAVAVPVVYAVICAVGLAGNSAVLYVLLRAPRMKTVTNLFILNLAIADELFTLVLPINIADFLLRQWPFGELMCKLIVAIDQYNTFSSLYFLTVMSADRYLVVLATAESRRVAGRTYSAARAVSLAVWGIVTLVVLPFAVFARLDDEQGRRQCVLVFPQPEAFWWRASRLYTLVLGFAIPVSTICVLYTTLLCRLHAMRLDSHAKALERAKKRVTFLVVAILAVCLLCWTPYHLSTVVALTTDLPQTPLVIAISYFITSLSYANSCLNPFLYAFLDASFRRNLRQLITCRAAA

- IC50 [1]: 8.15 µM (active)
- IC50 [2]: 4.47 µM (active)
SMILES: O=C(NCCCn1ccnc1)c1cnn2c1NC(c1ccccc1)CC2C(F)(F)F (stereo not given)

- Ki [3]: > 2 µM (inactive)
- Ki [4]: 3.16 µM (active)
- Ki [5]: 0.00398 µM (active)
SMILES: O=S(=O)(Nc1ccc2c(c1)C(=NO)c1ccccc1-2)c1cccc(Cl)c1

SMILES: CC(=O)O/N=C1C=C/C(=C(\C#N)c2ccccc2)C=C/1
- IC50 [6]: 5.83 µM (active)
- IC50 [7]: 49.8 µM (inactive)

- IC50 [8]: 11 µM (active)
SMILES: CCCN1CCC(=O)N([C@H](CSc2ccc(OC)cc2)Cc2ccccc2)CC1

SMILES: Cc1ccc(Cn2c(=N)n(CC(O)COc3ccccc3)c3ccccc32)cc1 (stereo not given)
- EC50 [9]: 4.91 µM (active)
- EC50 [10]: 5.49 µM (active)
- EC50 [11]: 9.05 µM (active)
- EC50 [12]: 5.07 µM (active)
- IC50 [1]: 5.55 µM (active)
- EC50 [13]: > 92.5 µM (inactive)
- EC50 [14]: 35.1 µM (inactive)
- EC50 [15]: > 92.5 µM (inactive)
- IC50 [2]: 7.08 µM (active)
- AC50 [16]: 2.46 µM (active)
- AC50 [17]: 21.4 µM (active)
- AC50 [18]: 3.9 µM (active)

SMILES: COc1ccc(-c2cc3nc(-c4ccccc4)cc(N4CCC(O)CC4)n3n2)cc1
- CC50 [19]: 17 µM (active)
- IC50 [20]: > 80 µM (inactive)
- IC50 [21]: 34.9 µM (active)

- IC50 [22]: 1.56 µM (active)
- IC50 [23]: 1.56 µM (active)
SMILES: N#CC(c1c(F)c(F)c(F)c(F)c1F)c1c(Cl)cnn(Cc2cccc3ccccc23)c1=O (stereo not given)
